Experimental findings from ChEMBL document CHEMBL1132539 (J Med Chem, 1999) are described below.

The term Ki denotes a dissociation constant, usually derived from enzyme kinetics or from competition with a known ligand.

The target of one assay is Glutamyl aminopeptidase (Homo sapiens, UniProt Q07075). Nature of the assay: Binding affinity against recombinant Aminopeptidase A.
Another assay addresses T1, Aminopeptidase N (Sus scrofa, UniProt P15145).
T1 sequence (P15145 whole entry): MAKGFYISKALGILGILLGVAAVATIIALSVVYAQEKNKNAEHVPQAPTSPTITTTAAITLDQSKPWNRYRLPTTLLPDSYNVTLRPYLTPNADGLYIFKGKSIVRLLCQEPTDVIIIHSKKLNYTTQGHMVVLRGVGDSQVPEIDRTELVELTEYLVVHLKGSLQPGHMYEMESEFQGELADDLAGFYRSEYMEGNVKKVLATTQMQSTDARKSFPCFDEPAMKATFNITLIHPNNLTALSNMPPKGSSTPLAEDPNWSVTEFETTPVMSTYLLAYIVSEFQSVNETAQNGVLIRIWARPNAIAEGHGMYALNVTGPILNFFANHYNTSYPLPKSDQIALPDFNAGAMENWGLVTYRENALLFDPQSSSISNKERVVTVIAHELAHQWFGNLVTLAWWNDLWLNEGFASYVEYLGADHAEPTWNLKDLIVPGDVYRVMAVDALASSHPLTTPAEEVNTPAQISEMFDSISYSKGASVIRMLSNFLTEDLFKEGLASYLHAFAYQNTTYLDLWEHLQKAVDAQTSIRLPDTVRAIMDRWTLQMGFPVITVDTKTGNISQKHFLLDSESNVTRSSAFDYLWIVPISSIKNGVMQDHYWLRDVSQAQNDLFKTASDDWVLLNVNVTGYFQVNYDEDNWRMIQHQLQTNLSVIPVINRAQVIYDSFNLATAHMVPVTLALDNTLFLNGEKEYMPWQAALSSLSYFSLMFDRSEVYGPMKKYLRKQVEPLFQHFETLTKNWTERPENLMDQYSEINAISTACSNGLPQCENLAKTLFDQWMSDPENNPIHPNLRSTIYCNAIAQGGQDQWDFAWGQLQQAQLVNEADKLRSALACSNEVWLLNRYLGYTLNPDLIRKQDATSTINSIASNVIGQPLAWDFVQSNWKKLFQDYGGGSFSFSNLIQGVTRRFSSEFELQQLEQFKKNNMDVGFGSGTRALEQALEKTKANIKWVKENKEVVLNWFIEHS

Assay [1] has as its target T2, Angiotensin-converting enzyme (Rattus norvegicus, UniProt P47820).
T2 sequence (P47820 whole entry): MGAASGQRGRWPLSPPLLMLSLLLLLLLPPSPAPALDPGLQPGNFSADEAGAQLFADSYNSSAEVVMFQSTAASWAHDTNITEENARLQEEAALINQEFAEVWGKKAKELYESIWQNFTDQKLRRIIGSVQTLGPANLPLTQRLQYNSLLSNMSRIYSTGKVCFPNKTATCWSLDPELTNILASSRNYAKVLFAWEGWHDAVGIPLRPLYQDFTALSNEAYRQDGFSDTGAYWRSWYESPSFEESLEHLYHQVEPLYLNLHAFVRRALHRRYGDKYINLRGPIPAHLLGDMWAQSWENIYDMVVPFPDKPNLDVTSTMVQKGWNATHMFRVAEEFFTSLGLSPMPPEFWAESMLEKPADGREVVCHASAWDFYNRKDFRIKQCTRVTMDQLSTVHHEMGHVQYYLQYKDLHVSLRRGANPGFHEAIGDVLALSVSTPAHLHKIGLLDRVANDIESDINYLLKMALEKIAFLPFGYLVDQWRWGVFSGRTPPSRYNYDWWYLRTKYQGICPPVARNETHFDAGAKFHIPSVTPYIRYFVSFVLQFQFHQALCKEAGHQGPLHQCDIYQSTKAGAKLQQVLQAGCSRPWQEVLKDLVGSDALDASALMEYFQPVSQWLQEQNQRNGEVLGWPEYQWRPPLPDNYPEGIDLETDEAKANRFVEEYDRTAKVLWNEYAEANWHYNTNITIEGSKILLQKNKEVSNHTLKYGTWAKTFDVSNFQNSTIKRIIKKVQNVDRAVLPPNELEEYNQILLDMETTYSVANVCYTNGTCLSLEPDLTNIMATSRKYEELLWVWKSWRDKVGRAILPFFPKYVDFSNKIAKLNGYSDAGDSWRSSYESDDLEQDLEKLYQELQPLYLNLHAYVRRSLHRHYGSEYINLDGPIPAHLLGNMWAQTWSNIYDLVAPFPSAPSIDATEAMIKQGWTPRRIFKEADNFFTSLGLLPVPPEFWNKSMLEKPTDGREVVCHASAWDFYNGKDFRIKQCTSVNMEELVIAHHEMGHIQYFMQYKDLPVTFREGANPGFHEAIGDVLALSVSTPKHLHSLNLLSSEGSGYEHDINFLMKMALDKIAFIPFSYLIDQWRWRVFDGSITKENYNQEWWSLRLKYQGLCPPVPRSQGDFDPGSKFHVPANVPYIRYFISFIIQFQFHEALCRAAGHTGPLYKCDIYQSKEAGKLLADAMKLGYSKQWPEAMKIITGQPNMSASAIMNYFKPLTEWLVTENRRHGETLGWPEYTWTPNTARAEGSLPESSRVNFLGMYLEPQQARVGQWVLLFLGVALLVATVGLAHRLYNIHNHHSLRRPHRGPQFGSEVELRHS
Nature of the assay: Binding affinity against Angiotensin I converting enzyme from rat testis.

For a further assay, the target named is T3, Neprilysin (Oryctolagus cuniculus, UniProt P08049).
T3 sequence (P08049 whole entry): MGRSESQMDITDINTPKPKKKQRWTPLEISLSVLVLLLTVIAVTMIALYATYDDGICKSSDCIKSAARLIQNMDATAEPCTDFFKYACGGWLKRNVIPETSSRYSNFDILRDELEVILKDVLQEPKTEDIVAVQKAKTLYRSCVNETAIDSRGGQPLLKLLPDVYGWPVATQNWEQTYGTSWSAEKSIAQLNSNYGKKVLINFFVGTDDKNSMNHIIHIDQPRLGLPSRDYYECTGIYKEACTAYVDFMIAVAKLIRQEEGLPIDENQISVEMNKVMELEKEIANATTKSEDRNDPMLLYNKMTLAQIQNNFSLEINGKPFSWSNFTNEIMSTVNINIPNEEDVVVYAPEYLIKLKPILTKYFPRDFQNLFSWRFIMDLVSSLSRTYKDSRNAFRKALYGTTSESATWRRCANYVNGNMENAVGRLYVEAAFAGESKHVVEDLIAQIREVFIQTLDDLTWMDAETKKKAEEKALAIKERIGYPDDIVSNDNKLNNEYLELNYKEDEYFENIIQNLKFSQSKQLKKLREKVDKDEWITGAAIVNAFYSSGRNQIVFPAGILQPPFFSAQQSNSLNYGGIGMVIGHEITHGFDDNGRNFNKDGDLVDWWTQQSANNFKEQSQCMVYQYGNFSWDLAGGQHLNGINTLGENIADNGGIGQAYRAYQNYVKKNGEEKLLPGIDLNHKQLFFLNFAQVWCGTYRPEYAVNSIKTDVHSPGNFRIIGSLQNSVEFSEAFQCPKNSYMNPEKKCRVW
Description: Binding affinity against NEP from rabbit kidney(neutral endopeptidase).

Sequence of Glutamyl aminopeptidase (Q07075 whole entry): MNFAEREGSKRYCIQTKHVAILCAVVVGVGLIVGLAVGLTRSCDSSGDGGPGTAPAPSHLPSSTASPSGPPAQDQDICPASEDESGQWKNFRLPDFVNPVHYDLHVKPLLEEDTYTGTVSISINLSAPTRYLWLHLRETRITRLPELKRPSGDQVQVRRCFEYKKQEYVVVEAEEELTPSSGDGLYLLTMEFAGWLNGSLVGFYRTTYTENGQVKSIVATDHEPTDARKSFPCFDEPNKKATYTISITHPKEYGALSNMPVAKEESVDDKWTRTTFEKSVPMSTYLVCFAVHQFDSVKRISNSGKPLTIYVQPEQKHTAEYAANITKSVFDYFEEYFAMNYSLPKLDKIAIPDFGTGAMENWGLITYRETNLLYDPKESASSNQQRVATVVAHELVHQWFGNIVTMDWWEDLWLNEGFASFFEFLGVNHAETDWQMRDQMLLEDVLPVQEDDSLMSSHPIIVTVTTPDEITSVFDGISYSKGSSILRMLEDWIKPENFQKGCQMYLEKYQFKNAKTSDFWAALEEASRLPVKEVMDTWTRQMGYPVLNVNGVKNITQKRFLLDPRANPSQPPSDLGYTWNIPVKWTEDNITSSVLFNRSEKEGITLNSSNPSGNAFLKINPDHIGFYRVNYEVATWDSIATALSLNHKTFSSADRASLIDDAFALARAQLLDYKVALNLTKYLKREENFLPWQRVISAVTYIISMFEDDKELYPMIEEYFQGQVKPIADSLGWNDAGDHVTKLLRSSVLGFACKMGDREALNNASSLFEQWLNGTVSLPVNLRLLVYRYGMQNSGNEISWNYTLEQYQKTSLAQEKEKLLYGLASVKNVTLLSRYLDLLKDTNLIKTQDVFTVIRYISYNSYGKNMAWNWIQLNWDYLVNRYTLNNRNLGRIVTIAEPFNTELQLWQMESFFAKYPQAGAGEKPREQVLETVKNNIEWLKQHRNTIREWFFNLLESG
Description for Aminopeptidase N: Binding affinity against aminopeptidase N from pig kidney

As for `CC[C@@H](C)[C@H](NC(=O)[C@@H](S)[C@H](N)CCS(=O)(=O)O)C(=O)N1CCC(C(=O)O)[C@@H]1C(=O)O` (stereo partly drawn), the Ki at Glutamyl aminopeptidase stood at 0.24 µM.

For the compound `CC[C@@H](C)[C@H](NC(=O)[C@@H](S)[C@H](N)CCS(=O)(=O)O)C(=O)N[C@@H](CC(=O)O)C(N)=O`, the figures for the inhibition constant (Ki) on Glutamyl aminopeptidase and on Aminopeptidase N were 0.47 µM and 51 µM, respectively.

Regarding `CC[C@@H](C)[C@H](NC(=O)[C@@H](S)[C@H](N)CCS(=O)(=O)O)C(N)=O`, the inhibitory constant (Ki) on Glutamyl aminopeptidase is 4.2 µM; at Aminopeptidase N, > 10 µM.

On to `CC[C@@H](C)[C@H](NC(=O)[C@H](S)[C@H](N)CCS(=O)(=O)O)C(N)=O`, for which the inhibition constant Ki at Glutamyl aminopeptidase is 0.145 µM; on Aminopeptidase N, > 10 µM.

On to `CC[C@@H](C)[C@H](NC(=O)[C@@H](S)[C@H](N)CCS(=O)(=O)O)C(=O)N[C@H](CC(=O)O)C(=O)O`, for which the inhibition constant (Ki) is 0.283 µM on Glutamyl aminopeptidase and > 100 µM on Aminopeptidase N.

Turning to `N[C@H](CCS(=O)(=O)O)[C@@H](S)C(=O)N[C@@H](Cc1ccc(O)cc1)C(=O)N[C@@H](CCS(=O)(=O)O)C(=O)O`, the inhibition constant Ki at Glutamyl aminopeptidase was determined as 0.0093 µM; in assay [1] it was 0.66 µM; on Neprilysin, 0.52 µM.

Consider `CC[C@@H](C)[C@H](NC(=O)[C@@H](S)[C@H](N)CCS(=O)(=O)O)C(=O)N1CCC(C(=O)O)[C@H]1C(=O)O` (stereo partly drawn), for which the inhibition constant Ki on Glutamyl aminopeptidase is 0.11 µM.

As for `CC[C@@H](C)[C@H](NC(=O)[C@@H](S)[C@@H](N)CCS(=O)(=O)O)C(=O)N[C@@H](CC(=O)O)C(=O)O`, the inhibitory constant (Ki) at Glutamyl aminopeptidase was 0.05 µM; on Aminopeptidase N, > 100 µM.

As for `CC[C@@H](C)[C@H](NC(=O)[C@H](S)[C@H](N)CCS(=O)(=O)O)C(=O)N[C@@H](CC(=O)O)C(N)=O`, the Ki on Glutamyl aminopeptidase came to 0.015 µM; on Aminopeptidase N, 44 µM.

As for `CC[C@@H](C)[C@H](NC(=O)[C@@H](S)[C@H](N)CCP(=O)(O)O)C(=O)N[C@@H](CC(=O)O)C(=O)O`, the inhibition constant Ki on Glutamyl aminopeptidase was 0.91 µM; on Aminopeptidase N, > 10 µM.

Take `CC[C@@H](C)[C@H](NC(=O)[C@@H](S)[C@H](N)CCS(=O)(=O)O)C(=O)O`: the Ki on Glutamyl aminopeptidase is 1.2 µM; on Aminopeptidase N, > 10 µM.

`CC[C@@H](C)[C@H](NC(=O)[C@H](S)[C@@H](N)CCC(=O)O)C(=O)N[C@@H](CC(=O)O)C(=O)O`: the Ki on Glutamyl aminopeptidase turned out to be 0.013 µM; on Aminopeptidase N it was 0.12 µM.

Take `N[C@H](CCS(=O)(=O)O)[C@H](S)C(=O)N[C@@H](Cc1ccc(O)cc1)C(=O)N[C@@H](CC(=O)O)C(=O)O`: the Ki is 0.027 µM at Glutamyl aminopeptidase and 48 µM at Aminopeptidase N.

For `CC[C@@H](C)[C@H](NC(=O)[C@H](S)[C@H](N)CCS(=O)(=O)O)C(=O)N1CCC(C(=O)O)[C@H]1C(=O)O` (stereo partly drawn), the Ki stood at 0.000873 µM at Glutamyl aminopeptidase, 0.259 µM in assay [1] and 0.219 µM at Neprilysin.

Take `CC[C@@H](C)[C@H](NC(=O)[C@H](S)[C@H](N)CCS(=O)(=O)O)C(=O)O`: the Ki at Glutamyl aminopeptidase was 0.04 µM; on Aminopeptidase N, > 10 µM.

Regarding `CC[C@@H](C)[C@H](NC(=O)C(S)C(N)CCS(N)(=O)=O)C(=O)N[C@@H](CC(=O)O)C(=O)O` (stereo partly drawn), the figures for the Ki at Glutamyl aminopeptidase and on Aminopeptidase N were 0.08 µM and 28 µM, respectively.

In the case of `CC[C@@H](C)[C@H](NC(=O)[C@H](S)[C@@H](N)CCS(=O)(=O)O)C(=O)N[C@@H](CC(=O)O)C(=O)O`, the inhibitory constant (Ki) at Glutamyl aminopeptidase came to 0.02 µM; at Aminopeptidase N, 23 µM.

For `N[C@H](CCS(=O)(=O)O)[C@H](S)C(=O)N[C@@H](Cc1ccc(O)cc1)C(=O)N[C@@H](CCS(=O)(=O)O)C(=O)O`, the Ki at Glutamyl aminopeptidase came out at 0.0733 µM.

For `CC[C@@H](C)[C@H](NC(=O)[C@@H](S)[C@@H](N)CCC(=O)O)C(=O)N[C@@H](CC(=O)O)C(=O)O`, the Ki was 0.016 µM at Glutamyl aminopeptidase and 3.9 µM at Aminopeptidase N.

`CC[C@@H](C)[C@H](NC(=O)[C@@H](S)[C@H](N)CCS(=O)(=O)O)C(=O)N[C@@H](CC(=O)O)C(=O)O`: the results for the Ki on Glutamyl aminopeptidase and at Aminopeptidase N were 0.053 µM and > 100 µM, respectively.

Consider `CC[C@@H](C)[C@H](NC(=O)[C@H](S)[C@H](N)CCS(=O)(=O)O)C(=O)N1CCC(C(=O)O)[C@@H]1C(=O)O` (stereo partly drawn), for which the Ki at Glutamyl aminopeptidase is 0.00383 µM; in assay [1], 1.09 µM; on Neprilysin, 0.52 µM.

Consider `NC(CCS(N)(=O)=O)C(S)C(=O)N[C@@H](Cc1ccc(O)cc1)C(=O)N[C@@H](CC(=O)O)C(=O)O` (stereo partly drawn), for which the Ki stood at 0.15 µM on Glutamyl aminopeptidase and 7 µM on Aminopeptidase N.

On to `CC[C@H](C)[C@@H](NC(=O)[C@@H](S)[C@H](N)CCS(=O)(=O)O)C(=O)N[C@@H](CC(=O)O)C(=O)O`, for which the Ki at Glutamyl aminopeptidase is 0.292 µM; on Aminopeptidase N, > 100 µM.

As for `CC[C@@H](C)[C@H](NC(=O)[C@H](S)[C@H](N)CCS(=O)(=O)O)C(=O)N[C@@H](CS(=O)(=O)O)C(=O)O`, the Ki on Glutamyl aminopeptidase was 0.0036 µM; in assay [1], 1.21 µM; at Neprilysin, 0.017 µM.

Consider `CC[C@@H](C)[C@H](NC(=O)[C@@H](S)[C@H](N)CCC(=O)O)C(=O)N[C@@H](CC(=O)O)C(=O)O`, for which the Ki at Glutamyl aminopeptidase was 0.267 µM; on Aminopeptidase N, > 10 µM.

For `CC[C@@H](C)[C@H](NC(=O)[C@@H](S)[C@H](N)CCS(=O)(=O)O)C(=O)N[C@@H](CS(=O)(=O)O)C(=O)O`, at Glutamyl aminopeptidase, the Ki is 0.0833 µM.

In the case of `CC[C@H](C)[C@@H](NC(=O)[C@H](S)[C@H](N)CCS(=O)(=O)O)C(=O)N[C@@H](CC(=O)O)C(=O)O`, the Ki was 0.0147 µM on Glutamyl aminopeptidase and > 100 µM at Aminopeptidase N.

`CC[C@@H](C)[C@H](NC(=O)[C@H](S)[C@H](N)CCS(=O)(=O)O)C(=O)N[C@H](CC(=O)O)C(=O)O`: the inhibitory constant (Ki) is 0.00536 µM on Glutamyl aminopeptidase and > 100 µM on Aminopeptidase N.

Consider `CC[C@@H](C)[C@H](NCC(S)C(N)CCS(N)(=O)=O)C(=O)N[C@@H](CC(=O)O)C(=O)O` (stereo partly drawn), for which the Ki stood at 0.051 µM at Glutamyl aminopeptidase and 3.4 µM at Aminopeptidase N.
